Some test systems named below: A498; A549; BT-549; CAKI-1; COLO 205; Hs-578T; KM12; MCF7; MDA-MB-435; NCI/ADR-RES; OVCAR-4; PC-3; SF-295; SK-MEL-5; SR; SW-620; TK-10; UACC-62; HCC 2998.
Holding throughout (test): inhibition of tumour cell growth, NCI panel, 48 h

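Method: 48-hour compound exposure of cells in 96-well plates, five concentrations, linear interpolation of endpoints. GI50 = concentration required for 50% inhibition of growth.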 Active and inactive are the calls of the source. No stated cut-off is given here; in the data, active = GI50 up to about 1.1 µM and inactive = higher.

With `C[N+]1(C)C2CC(OC(=O)C(CO)c3ccccc3)CC1C1OC12` (stereo not drawn), the GI50 with A498, in the assay with A549, in the assay on BT-549, with CAKI-1, in the assay on COLO 205 and with Hs-578T was > 100 µM (inactive) each time. In addition, the GI50 in the assay on KM12, in the assay with MCF7, with MDA-MB-435, in the assay on NCI/ADR-RES, in the assay with OVCAR-4 and in the assay on PC-3 was > 100 µM (inactive) in each case. For the same compound, the GI50 in the assay on SF-295, in the assay with SK-MEL-5, with SR, in the assay with SW-620, with TK-10 and in the assay on UACC-62 was > 100 µM (inactive) throughout.
As for `O=C(O)CCC(C(=O)O)N1C(=O)C2C3CCC(C3)C2C1=O` (stereo not drawn), the GI50 in the assay with A498, in the assay on A549, in the assay on BT-549, in the assay with CAKI-1, with COLO 205 and in the assay on Hs-578T was > 100 µM (inactive) throughout. The GI50 in the assay with KM12, in the assay with MCF7, in the assay on MDA-MB-435, in the assay with NCI/ADR-RES, in the assay on OVCAR-4 and in the assay on PC-3 was > 100 µM (inactive) each time. The GI50 with SF-295, in the assay with SK-MEL-5, in the assay with SR, with SW-620, in the assay on TK-10 and with UACC-62 was > 100 µM (inactive) each time.
`c1ccc(CSc2ccccc2CN2CCN(Cc3ccccc3SCc3ccccc3)CCN(Cc3ccccc3SCc3ccccc3)CC2)cc1`: the GI50 in the assay with A498 was 2.25 µM (inactive); in the assay with A549 it was 2.35 µM (inactive); with BT-549, 1.87 µM (inactive); with CAKI-1, 3.21 µM (inactive); in the assay with COLO 205, 0.869 µM (active); in the assay on HCC 2998, 1.09 µM (active). In addition, the GI50 is 1.85 µM (inactive) in the assay on Hs-578T; 1.58 µM (inactive) in the assay on KM12; 1.48 µM (inactive) in the assay on MCF7; 1.31 µM (inactive) in the assay on MDA-MB-435; 2.44 µM (inactive) in the assay with NCI/ADR-RES; 1.45 µM (inactive) with OVCAR-4. Besides, the GI50 in the assay on PC-3 was 1.26 µM (inactive); in the assay with SF-295 it was 1.04 µM (active); in the assay with SK-MEL-5, 1.57 µM (inactive); in the assay with SR, 2.16 µM (inactive); with SW-620, 2.38 µM (inactive); in the assay with TK-10, 2.3 µM (inactive). In the assay on UACC-62, the GI50 was 1.43 µM (inactive).
Turning to `COc1ccc(C2=Nn3c(C)nnc3S/C2=C\c2ccc(-c3ccc([N+](=O)[O-])cc3)o2)cc1`, the GI50 with A498 is 31.2 µM (inactive); in the assay on A549, 20 µM (inactive); in the assay on BT-549, 5.86 µM (inactive); in the assay on CAKI-1, 14.5 µM (inactive); with HCC 2998, 7.41 µM (inactive); with Hs-578T, 49.4 µM (inactive). In addition, the GI50 in the assay on KM12 is 16.1 µM (inactive); with MCF7, 3.18 µM (inactive); in the assay on MDA-MB-435, 3.78 µM (inactive); in the assay on NCI/ADR-RES, 7.85 µM (inactive); with OVCAR-4 it was 22.2 µM (inactive); with PC-3 it was 9.84 µM (inactive). Further, the GI50 in the assay on SF-295 is 38 µM (inactive); in the assay on SK-MEL-5, 19 µM (inactive); with SR, 3.21 µM (inactive); in the assay on TK-10, 13.7 µM (inactive); with UACC-62, 12.1 µM (inactive).
On to `COC(=O)C(=O)C(C(=O)C(=O)Nc1ccc([N+](=O)[O-])cc1[N+](=O)[O-])c1nc2ccc(Cl)cc2nc1O` (stereo not drawn), for which the GI50 was > 100 µM (inactive) in the assay with A498; > 100 µM (inactive) in the assay on A549; > 100 µM (inactive) with BT-549; 17.5 µM (inactive) in the assay with CAKI-1; > 100 µM (inactive) with COLO 205; > 100 µM (inactive) with HCC 2998. In addition, the GI50 in the assay on Hs-578T was 25.1 µM (inactive); with KM12 it was > 100 µM (inactive); in the assay with MCF7, > 100 µM (inactive); in the assay on MDA-MB-435 it was > 100 µM (inactive); in the assay on NCI/ADR-RES, 87.3 µM (inactive); in the assay with OVCAR-4, 27.1 µM (inactive). In addition, the GI50 in the assay on PC-3, with SF-295, with SK-MEL-5, in the assay on SR, in the assay on SW-620 and with UACC-62 was > 100 µM (inactive) in each case.
As to `O=C1NC(Nc2cccc(Cl)c2)=N/C1=C\c1ccc(Cl)c(Cl)c1`, the GI50 is 4.37 µM (inactive) with A498; 3.8 µM (inactive) in the assay with A549; 12.4 µM (inactive) with BT-549; 4.6 µM (inactive) in the assay on CAKI-1; 3.88 µM (inactive) with COLO 205; 2.28 µM (inactive) in the assay on HCC 2998. The GI50 with Hs-578T was 3.04 µM (inactive); in the assay on KM12 it was 3.37 µM (inactive); with MCF7, 3.01 µM (inactive); in the assay with MDA-MB-435 it was 4.85 µM (inactive); in the assay with NCI/ADR-RES it was 4.04 µM (inactive); in the assay on OVCAR-4, 1.9 µM (inactive). For the same compound, the GI50 in the assay on PC-3 is 3.66 µM (inactive); with SF-295, 4.05 µM (inactive); with SK-MEL-5, 6.18 µM (inactive); in the assay with SR, 2.82 µM (inactive); with SW-620 it was 3.68 µM (inactive); in the assay with TK-10, 9.35 µM (inactive). In addition, in the assay with UACC-62, the GI50 is 10.1 µM (inactive).
Regarding `Cc1cc([C@H](C#N)c2nc3ccccc3s2)nc(Cl)n1`, the GI50 with A498 was 15.2 µM (inactive); in the assay on A549, 14.8 µM (inactive); in the assay on BT-549, 3.94 µM (inactive); with CAKI-1 it was 4.51 µM (inactive); in the assay on COLO 205, 2.4 µM (inactive); in the assay with HCC 2998, 4.86 µM (inactive). For the same compound, the GI50 was 4.71 µM (inactive) with Hs-578T; 2.78 µM (inactive) in the assay on KM12; 4.41 µM (inactive) in the assay with MCF7; 2.99 µM (inactive) in the assay with MDA-MB-435; 3.08 µM (inactive) in the assay with NCI/ADR-RES; 5.82 µM (inactive) in the assay with OVCAR-4. Also, the GI50 with PC-3 was 3.54 µM (inactive); in the assay with SF-295 it was 15.5 µM (inactive); in the assay with SK-MEL-5, 1.79 µM (inactive); with SR it was 1.31 µM (inactive); in the assay on SW-620 it was 3.04 µM (inactive); in the assay with TK-10 it was 4.98 µM (inactive). Besides, the GI50 in the assay with UACC-62 is 3.65 µM (inactive).
On to `O=C1C(=C2SC(c3ccccc3)(c3ccccc3)c3ccccc32)C(=O)c2ccccc21`, for which the GI50 in the assay with A498, with A549, with BT-549, in the assay with CAKI-1, in the assay with COLO 205 and in the assay with HCC 2998 was > 100 µM (inactive) each time. Moreover, the GI50 with Hs-578T, in the assay with KM12, with MCF7, with MDA-MB-435, in the assay with NCI/ADR-RES and with OVCAR-4 was > 100 µM (inactive) throughout. The GI50 was 82.4 µM (inactive) in the assay on PC-3; > 100 µM (inactive) in the assay on SF-295; > 100 µM (inactive) in the assay on SK-MEL-5; 65.2 µM (inactive) with SR; > 100 µM (inactive) with SW-620; > 100 µM (inactive) in the assay with TK-10. The GI50 in the assay on UACC-62 was > 100 µM (inactive).
As for `CN(C)c1ccc(C(=C2C=CC(=[N+](C)C)C=C2)c2c(O)c(S(=O)(=O)[O-])cc3cc(S(=O)(=O)O)ccc23)cc1`, the GI50 in the assay with A498, with A549, with BT-549, with CAKI-1, in the assay with COLO 205 and in the assay on HCC 2998 was > 100 µM (inactive) in each case. Moreover, the GI50 in the assay with Hs-578T, with KM12, in the assay on MCF7, in the assay with MDA-MB-435, in the assay with NCI/ADR-RES and in the assay on OVCAR-4 was > 100 µM (inactive) throughout. In addition, the GI50 in the assay on PC-3, in the assay on SF-295, with SK-MEL-5, with SR, in the assay on SW-620 and with TK-10 was > 100 µM (inactive) each time. Also, in the assay with UACC-62, the GI50 is > 100 µM (inactive).
As to `CC(=O)OCC(OC(C)=O)C1C[C@H]2O[C@@H]3[C@H](C[C@H]2O1)O[C@@]1(C[C@@H]3C)C[C@H](C)[C@@H]2O[C@]3(C[C@@H]2O1)C[C@H]1O[C@H]2[C@H](C)[C@H]4OC(=O)CC5CC[C@H]6OC7[C@H]8O[C@]9(CC[C@H]%10CC(O)(CO)[C@H](CC[C@H]%11C[C@@H](C)C(O)(CO)C(C[C@@H]4O[C@H]2C[C@H]1O3)O%11)O%10)CC8O[C@@H]7[C@@H](O9)[C@H]6O5` (stereo partly drawn), the GI50 with A498 was > 0.214 µM (active); in the assay with A549, 0.00643 µM (active); with BT-549, 0.00185 µM (active); with CAKI-1, 0.0127 µM (active); in the assay on COLO 205 it was 0.00445 µM (active); in the assay on HCC 2998, 0.00532 µM (active). Moreover, the GI50 with Hs-578T was 0.00154 µM (active); with KM12, 0.00415 µM (active); in the assay with MCF7 it was 0.00281 µM (active); in the assay on MDA-MB-435, 0.000853 µM (active); in the assay with NCI/ADR-RES, 0.0201 µM (active); in the assay on PC-3 it was 0.00614 µM (active). The GI50 is 0.0043 µM (active) with SF-295; 0.00141 µM (active) in the assay on SK-MEL-5; 0.000581 µM (active) in the assay on SR; 0.00492 µM (active) in the assay on SW-620; 0.00305 µM (active) in the assay on UACC-62.

These data come from ChEMBL document CHEMBL1201862, “PubChem BioAssay data set” (2004).
